Some results are limits rather than exact numbers.

The nature of series [1]: Tmax in C57 mouse at 10 mg/kg, po. It counts as ADME, organism-based. Details: dose 10 mg/kg, route oral. Particulars: in vivo.
Series [2] is described as follows: Oral bioavailability in C57 mouse at 10 mg/kg. Particulars: in vivo. The series is classed as ADME, organism-based.
Series [3] is described as follows: Half life in rat liver microsome. It counts as ADME. The note with it: liver microsomes.
Series [4] relates to HepG2. The experiment in a line: cells. The note with it: Homo sapiens.
The subject of series [5] is Huh-7. The experiment in a line: Upregulation of SREB1c mRNA level in human HuH7 cells. It counts as functional, cell-based.
Series [6] in a line: Cmax in C57 mouse at 10 mg/kg, po. It counts as ADME, organism-based. More on the design: dose 10 mg/kg, route oral. The note with it: in vivo.
Series [7] in a line: Half life in C57 mouse at 10 mg/kg, po. Particulars: in vivo. It counts as ADME, organism-based. Details: dose 10 mg/kg, route oral.
Series [8] is described as follows: Half life in human liver microsome. It counts as ADME. Particulars: liver microsomes.
Series [9] concerns J774. Put plainly: cells. Particulars: Mus musculus.
The nature of series [10]: AUC (0 to infinity) in C57 mouse at 10 mg/kg, po. The series is classed as ADME, organism-based. The note with it: plasma. Details: time infinity, dose 10 mg/kg, route oral.
For series [11], the target named is Oxysterols receptor LXR-beta (Homo sapiens, UniProt P55055). Put plainly: Displacement of [3H]T0901317 from LXRbeta ligand binding domain.
Sequence of Oxysterols receptor LXR-beta (P55055 whole entry, the tested form may be a part): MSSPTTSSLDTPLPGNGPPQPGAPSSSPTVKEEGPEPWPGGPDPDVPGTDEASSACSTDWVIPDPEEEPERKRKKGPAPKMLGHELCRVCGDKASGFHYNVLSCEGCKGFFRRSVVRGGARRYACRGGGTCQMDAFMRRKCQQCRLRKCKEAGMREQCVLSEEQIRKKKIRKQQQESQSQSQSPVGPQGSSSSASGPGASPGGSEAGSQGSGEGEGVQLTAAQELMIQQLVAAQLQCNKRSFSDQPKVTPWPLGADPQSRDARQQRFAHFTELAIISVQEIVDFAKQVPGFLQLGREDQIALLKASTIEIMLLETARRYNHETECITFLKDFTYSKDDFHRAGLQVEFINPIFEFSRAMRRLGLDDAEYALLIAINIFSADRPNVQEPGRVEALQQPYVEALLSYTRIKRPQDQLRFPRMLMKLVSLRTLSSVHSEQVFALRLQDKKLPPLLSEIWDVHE
Series [12] has as its target T1, Oxysterols receptor LXR-alpha (Homo sapiens, UniProt Q13133).
T1 sequence (Q13133 whole entry): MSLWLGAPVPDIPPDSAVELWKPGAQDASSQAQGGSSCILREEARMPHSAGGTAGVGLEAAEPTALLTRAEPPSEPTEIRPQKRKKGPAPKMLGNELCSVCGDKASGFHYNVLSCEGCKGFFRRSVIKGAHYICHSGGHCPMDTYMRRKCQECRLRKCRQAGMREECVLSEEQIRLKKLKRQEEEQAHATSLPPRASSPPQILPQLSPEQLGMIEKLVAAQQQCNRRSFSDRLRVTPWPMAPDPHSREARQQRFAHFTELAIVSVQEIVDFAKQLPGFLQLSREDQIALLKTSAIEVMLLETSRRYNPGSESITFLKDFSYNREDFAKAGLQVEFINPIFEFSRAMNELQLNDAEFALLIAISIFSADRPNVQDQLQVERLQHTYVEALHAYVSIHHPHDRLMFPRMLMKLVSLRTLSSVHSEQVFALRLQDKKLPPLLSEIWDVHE
Put plainly: Displacement of [3H]T0901317 from LXRalpha ligand binding domain.

For `CS(=O)(=O)c1cccc(-c2cccc(-c3ccnc4c(C(F)(F)F)cccc34)c2)c1`, the time of peak concentration (Tmax) in [1] stood at 60 min. In series [2], this compound had a bioavailability of 100%. Further, the half-life in [3] is more than 30 min; in [7], 834 min; in [8], more than 30 min. Besides, the EC50 is 77 nM in [4], 440 nM in series [5] and 77 nM in [9]. The compound further had a Cmax in series [6] of 106 ng/mL. This compound showed an AUC(0-inf) in series [10] of 3010 ng·h/mL.
As to `CS(=O)(=O)c1ccc(-c2cccc(-c3ccnc4c(C(F)(F)F)cccc34)c2)cc1`, the half-life in series [3] and in series [8] was more than 30 min each time. Besides, the IC50 in series [11] and in [12] was more than 1000 nM each time.
`Cc1cnc2c(C(F)(F)F)cccc2c1-c1cccc(-c2cc(S(C)(=O)=O)c(F)cc2F)c1`: the half-life in [3] and in [8] was more than 30 min in each case.
On to `Cc1ccc(-c2cccc(-c3c(C)cnc4c(C(F)(F)F)cccc34)c2)cc1S(C)(=O)=O`, for which the half-life in [3] is 27 min; in [8] it was more than 30 min.
Take `COc1ccc(-c2cccc(-c3c(C)cnc4c(C(F)(F)F)cccc34)c2)cc1S(C)(=O)=O`: in [8], the half-life was more than 30 min. The compound further returned an IC50 in [12] of more than 1000 nM.
Consider `Cc1cnc2c(C(F)(F)F)cccc2c1-c1cccc(-c2ccc(S(C)(=O)=O)cc2)c1`, for which the half-life in series [3] and in [8] was more than 30 min in each case. In addition, the IC50 in series [12] was more than 1000 nM.
Regarding `O=S(=O)(c1ccccc1)N(CC(F)(F)F)c1ccc(C(O)(C(F)(F)F)C(F)(F)F)cc1` [T091317], the half-life in series [3] and in series [8] was more than 30 min throughout. In addition, the concentration for a half-maximal effect (EC50) in [4] came out at 107 nM; in series [5] it was 36 nM.
Turning to `Cc1cnc2c(C(F)(F)F)cccc2c1-c1cccc(-c2ccc(F)c(S(C)(=O)=O)c2)c1`, the half-life is 19 min in series [3] and more than 30 min in [8].
With `CS(=O)(=O)c1cc(-c2cccc(-c3ccnc4c(C(F)(F)F)cccc34)c2)c(F)cc1F`, the half-life in series [3] and in series [8] was more than 30 min each time. Besides, the EC50 in series [4] worked out at 133 nM; in [5], 132 nM; in [9], 11 nM.
On to `CS(=O)(=O)c1cc(-c2cccc(-c3ccnc4c(C(F)(F)F)cccc34)c2)ccc1F`, for which the half-life in [3] was 12 min; in [8] it was more than 30 min. Also, the EC50 in series [4] was determined as 41 nM; in series [9] it was 140 nM.
With `CCCc1cnc2c(C(F)(F)F)cccc2c1-c1cccc(-c2cccc(S(C)(=O)=O)c2)c1`, the half-life in series [3] and in series [8] was more than 30 min throughout. Moreover, the concentration for a half-maximal effect (EC50) is 0.4 nM in series [4], 8 nM in series [5] and 0.4 nM in [9].
On to `CCS(=O)(=O)c1cccc(-c2cccc(-c3c(C)cnc4c(C(F)(F)F)cccc34)c2)c1`, for which the half-life in [3] and in series [8] was more than 30 min throughout. For the same compound, the EC50 in series [4] came out at 190 nM; in series [5], 250 nM; in series [9], 190 nM.
As to `CC(C)c1cnc2c(C(F)(F)F)cccc2c1-c1cccc(-c2cccc(S(C)(=O)=O)c2)c1`, the half-life in [3] and in [8] was more than 30 min in each case. The figures for the EC50 in series [4], in series [5] and in series [9] were 0.5 nM, 6 nM and 0.5 nM, respectively.
In the case of `Cc1cnc2c(C(F)(F)F)cccc2c1-c1cccc(-c2cccc(S(C)(=O)=O)c2)c1`, the half-life in series [3] is more than 30 min. Besides, the 50% effective concentration (EC50) in [4] stood at 23 nM; in series [5] it was 52 nM; in series [9], 23 nM.
As for `CCc1cnc2c(C(F)(F)F)cccc2c1-c1cccc(-c2cccc(S(C)(=O)=O)c2)c1`, the half-life in series [3] and in [8] was more than 30 min in each case. Also, the concentration for a half-maximal effect (EC50) was determined as 0.7 nM in [4], 8 nM in series [5] and 0.7 nM in series [9].
On to `CS(=O)(=O)c1cccc(-c2cccc(-c3c(Cc4ccccc4)cnc4c(C(F)(F)F)cccc34)c2)c1`, for which the half-life in series [3] stood at 16 min.
Regarding `CCS(=O)(=O)c1cccc(-c2cccc(-c3ccnc4c(C(F)(F)F)cccc34)c2)c1`, the half-life in series [3] and in [8] was more than 30 min each time. The EC50 in series [4] came out at 156 nM; in series [5] it was 521 nM; in series [9], 156 nM.
Turning to `CS(=O)(=O)c1ccc(-c2cccc(-c3c(Cc4ccccc4)cnc4c(C(F)(F)F)cccc34)c2)cc1`, the values for the half-life in [3] and in [8] were 7 min and 27 min, respectively. The EC50 in [4], in series [5] and in series [9] was 571 nM each time.

Source of the values: ChEMBL document CHEMBL1158561, “Synthesis of 4-(3-biaryl)quinoline sulfones as potent liver X receptor agonists” (Bioorg Med Chem Lett, 2010).
